Reference: ChEMBL document CHEMBL1201862, “PubChem BioAssay data set” (2004)
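Interpolation was linear, between the two tested concentrations surrounding the appropriate level; five concentrations were tested over 48 hours in 96-well plates. Here, GI50 denotes the concentration required for 50% inhibition of growth.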 The source made the active and inactive calls. Rule as the data show it: active = GI50 up to about 1.1 µM and inactive = higher.

Assays:
Assay in all cases: growth of human tumour cells (NCI), 48 h
SN12C = test system: SN12C
SF-268 = test system: SF-268
Malme-3M = test system: Malme-3M
A549 = test system: A549
ACHN = test system: ACHN
U-251 = test system: U-251
SK-MEL-5 = test system: SK-MEL-5
MDA-N = test system: MDA-N
UACC-257 = test system: UACC-257
MOLT-4 = test system: MOLT-4
UO-31 = test system: UO-31
NCI-H460 = test system: NCI-H460
OVCAR-3 = test system: OVCAR-3
MCF7 = test system: MCF7
HCT-116 = test system: HCT-116
OVCAR-5 = test system: OVCAR-5
NCI-H23 = test system: NCI-H23
OVCAR-8 = test system: OVCAR-8
CCRF-CEM = test system: CCRF-CEM
COLO 205 = test system: COLO 205
UACC-62 = test system: UACC-62
SK-MEL-2 = test system: SK-MEL-2
HOP-92 = test system: HOP-92
M14 = test system: M14
EKVX = test system: EKVX
SK-OV-3 = test system: SK-OV-3
SK-MEL-28 = test system: SK-MEL-28
HL-60 = test system: HL-60
IGROV-1 = test system: IGROV-1
HOP-62 = test system: HOP-62
DU-145 = test system: DU-145
SR = test system: SR
BT-549 = test system: BT-549
T47D = test system: T47D
SF-539 = test system: SF-539
MDA-MB-435 = test system: MDA-MB-435
MDA-MB-231 = test system: MDA-MB-231
HT-29 = test system: HT-29
RXF 393 = test system: RXF 393
NCI-H226 = test system: NCI-H226
SF-295 = test system: SF-295
SNB-19 = test system: SNB-19
K562 = test system: K562
NCI/ADR-RES = test system: NCI/ADR-RES
CAKI-1 = test system: CAKI-1
RPMI-8226 = test system: RPMI-8226
OVCAR-4 = test system: OVCAR-4
HCT-15 = test system: HCT-15
HCC 2998 = test system: HCC 2998
LOX IMVI = test system: LOX IMVI
PC-3 = test system: PC-3
KM12 = test system: KM12
A498 = test system: A498
786-0 = test system: 786-0
Hs-578T = test system: Hs-578T
NCI-H522 = test system: NCI-H522
SW-620 = test system: SW-620
TK-10 = test system: TK-10
SNB-75 = test system: SNB-75

Q: How did the GI50 (SN12C) turn out when `CC1(C)[C@H](O)CC[C@]2(C)C3=CC[C@@]4(C)[C@@H]5C[C@](C)(CO)CC[C@]5(C)CC[C@]4(C)C3=CC[C@@H]12` was run?
A: 2.1 µM (inactive)

Q: And the GI50 (SF-268)?
A: > 100 µM (inactive)

Q: What about the GI50 (Malme-3M) of the same molecule?
A: > 100 µM (inactive)

Q: What about the GI50 (A549) of the same molecule?
A: 1.75 µM (inactive)

Q: What about the GI50 (ACHN) of the same molecule?
A: 2.13 µM (inactive)

Q: And the GI50 (U-251)?
A: 1.84 µM (inactive)

Q: And the GI50 (SK-MEL-5)?
A: > 100 µM (inactive)

Q: And the GI50 (MDA-N)?
A: > 100 µM (inactive)

Q: What about the GI50 (UACC-257) of the same molecule?
A: > 100 µM (inactive)

Q: And the GI50 (MOLT-4)?
A: > 100 µM (inactive)

Q: And the GI50 (UO-31)?
A: 1.98 µM (inactive)

Q: And the GI50 (NCI-H460)?
A: 1.91 µM (inactive)

Q: And the GI50 (OVCAR-3)?
A: 1.79 µM (inactive)

Q: And the GI50 (MCF7)?
A: > 100 µM (inactive)

Q: What about the GI50 (HCT-116) of the same molecule?
A: 2.01 µM (inactive)

Q: And the GI50 (OVCAR-5)?
A: > 100 µM (inactive)

Q: And the GI50 (NCI-H23)?
A: > 100 µM (inactive)

Q: What about the GI50 (OVCAR-8) of the same molecule?
A: 2.07 µM (inactive)

Q: And the GI50 (CCRF-CEM)?
A: 1.63 µM (inactive)

Q: And the GI50 (COLO 205)?
A: 3.23 µM (inactive)

Q: What about the GI50 (UACC-62) of the same molecule?
A: > 100 µM (inactive)

Q: And the GI50 (SK-MEL-2)?
A: > 100 µM (inactive)

Q: What about the GI50 (HOP-92) of the same molecule?
A: > 100 µM (inactive)

Q: And the GI50 (M14)?
A: > 100 µM (inactive)

Q: What about the GI50 (EKVX) of the same molecule?
A: > 100 µM (inactive)

Q: And the GI50 (SK-OV-3)?
A: > 100 µM (inactive)

Q: And the GI50 (SK-MEL-28)?
A: > 100 µM (inactive)

Q: What about the GI50 (HL-60) of the same molecule?
A: > 100 µM (inactive)

Q: What about the GI50 (IGROV-1) of the same molecule?
A: > 100 µM (inactive)

Q: And the GI50 (HOP-62)?
A: > 100 µM (inactive)

Q: And the GI50 (DU-145)?
A: > 100 µM (inactive)

Q: What about the GI50 (SR) of the same molecule?
A: 1.75 µM (inactive)

Q: And the GI50 (BT-549)?
A: > 100 µM (inactive)

Q: `CCCCCCc1cc2cc(C(=O)Nc3cccc(C(F)(F)F)c3)c(=N)oc2cc1O` was tested. Which GI50 (SN12C) did it give?
A: 1.33 µM (inactive)

Q: What about the GI50 (SF-268) of the same molecule?
A: 0.944 µM (active)

Q: What about the GI50 (T47D) of the same molecule?
A: 0.316 µM (active)

Q: And the GI50 (Malme-3M)?
A: 1.17 µM (inactive)

Q: And the GI50 (A549)?
A: 2.06 µM (inactive)

Q: And the GI50 (ACHN)?
A: 1.56 µM (inactive)

Q: What about the GI50 (SF-539) of the same molecule?
A: 1.73 µM (inactive)

Q: And the GI50 (U-251)?
A: 1.33 µM (inactive)

Q: What about the GI50 (SK-MEL-5) of the same molecule?
A: 1.13 µM (inactive)

Q: What about the GI50 (MDA-MB-435) of the same molecule?
A: 2 µM (inactive)

Q: And the GI50 (MDA-MB-231)?
A: 2.31 µM (inactive)

Q: What about the GI50 (HT-29) of the same molecule?
A: 5.96 µM (inactive)

Q: And the GI50 (RXF 393)?
A: 0.49 µM (active)

Q: What about the GI50 (NCI-H226) of the same molecule?
A: 1.06 µM (active)

Q: What about the GI50 (UACC-257) of the same molecule?
A: 2.44 µM (inactive)

Q: What about the GI50 (MOLT-4) of the same molecule?
A: 0.586 µM (active)

Q: And the GI50 (UO-31)?
A: 3.14 µM (inactive)

Q: What about the GI50 (SF-295) of the same molecule?
A: 2.9 µM (inactive)

Q: And the GI50 (SNB-19)?
A: 2.39 µM (inactive)

Q: And the GI50 (NCI-H460)?
A: 0.436 µM (active)

Q: What about the GI50 (OVCAR-3) of the same molecule?
A: 2.07 µM (inactive)

Q: What about the GI50 (K562) of the same molecule?
A: 0.543 µM (active)

Q: What about the GI50 (MCF7) of the same molecule?
A: 1.62 µM (inactive)

Q: What about the GI50 (HCT-116) of the same molecule?
A: 1.55 µM (inactive)

Q: What about the GI50 (NCI/ADR-RES) of the same molecule?
A: 2.06 µM (inactive)

Q: And the GI50 (CAKI-1)?
A: 2.32 µM (inactive)

Q: And the GI50 (RPMI-8226)?
A: 0.524 µM (active)

Q: What about the GI50 (OVCAR-5) of the same molecule?
A: 4.27 µM (inactive)

Q: What about the GI50 (NCI-H23) of the same molecule?
A: 0.185 µM (active)

Q: What about the GI50 (OVCAR-4) of the same molecule?
A: 2.32 µM (inactive)

Q: And the GI50 (OVCAR-8)?
A: 1.26 µM (inactive)

Q: What about the GI50 (CCRF-CEM) of the same molecule?
A: 0.933 µM (active)

Q: What about the GI50 (HCT-15) of the same molecule?
A: 1.43 µM

Q: What about the GI50 (COLO 205) of the same molecule?
A: 6.64 µM (inactive)

Q: And the GI50 (HCC 2998)?
A: 2.74 µM (inactive)

Q: And the GI50 (UACC-62)?
A: 1.53 µM (inactive)

Q: And the GI50 (LOX IMVI)?
A: 1.26 µM (inactive)

Q: What about the GI50 (SK-MEL-2) of the same molecule?
A: 2.17 µM (inactive)

Q: And the GI50 (PC-3)?
A: 3.34 µM (inactive)

Q: And the GI50 (HOP-92)?
A: 0.348 µM (active)

Q: What about the GI50 (M14) of the same molecule?
A: 2.29 µM (inactive)

Q: What about the GI50 (EKVX) of the same molecule?
A: 2.94 µM (inactive)

Q: And the GI50 (KM12)?
A: 2.84 µM (inactive)

Q: And the GI50 (A498)?
A: 2.92 µM (inactive)

Q: And the GI50 (786-0)?
A: 1.37 µM (inactive)

Q: And the GI50 (SK-OV-3)?
A: 2.16 µM (inactive)

Q: And the GI50 (Hs-578T)?
A: 0.998 µM (active)

Q: And the GI50 (SK-MEL-28)?
A: 2.57 µM (inactive)

Q: And the GI50 (HL-60)?
A: 1.44 µM (inactive)

Q: And the GI50 (IGROV-1)?
A: 1.19 µM (inactive)

Q: What about the GI50 (NCI-H522) of the same molecule?
A: 0.351 µM (active)

Q: And the GI50 (SW-620)?
A: 2.2 µM (inactive)

Q: And the GI50 (TK-10)?
A: 4.01 µM (inactive)

Q: What about the GI50 (HOP-62) of the same molecule?
A: 1.9 µM (inactive)

Q: And the GI50 (DU-145)?
A: 1.37 µM (inactive)

Q: What about the GI50 (SR) of the same molecule?
A: 0.361 µM (active)

Q: What about the GI50 (BT-549) of the same molecule?
A: 1.66 µM (inactive)

Q: What about the GI50 (SNB-75) of the same molecule?
A: 0.646 µM (active)
